These results are taken from US10988465B2, “CXCR4 inhibitors and uses thereof” (X4 Pharmaceuticals, Inc., priority 2016, dated 2021).

Series [1] addresses T1, CXCR-4 transfected U87 cell line (U87.CXCR4) (Homo sapiens, UniProt P61073).
T1 construct: expressed in transfected cells; host or cells: U87 (U87.CXCR4)
Kind of series: Intracellular CXCL-12-induced calcium mobilization assay (FLIPR). The format is cell-based. The note with it: U87.CXCR4 cells; CXCL-12 25-50 ng/mL; compound added 15 min before; read-out: IC50 CXCL-12 Ca^2+ flux U87.CXCR4+. The method in brief: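 CXCL-12 (25-50 ng/mL) was the stimulus, and the intracellular calcium rise was tracked kinetically by FLIPR at 37 °C. Cells were U87.CXCR4 transfectants pre-loaded 45 min at 37 °C with 4 μM (final) Fluo-2 AM in HEPES-buffered HBSS with 0.2% BSA, pH 7.4.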
In general terms: Calcium assays in cells follow changes in intracellular calcium, usually with a dye or a luminescent sensor.

Series [2] addresses T2, Jurkat cells expressing CXCR4 (Homo sapiens, UniProt P61073).
T2 construct: endogenous in cells; host or cells: Jurkat
Kind of series: Chemokine (CXCL12-AF647) binding inhibition assay. As to conditions: CXCL12-AF647 25 ng/mL, read-out: IC50 CXCL-12 binding Jurkat. The method in brief:
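Cells in HBSS, 20 mM HEPES, 0.2% BSA, pH 7.4, preincubated 15 min at room temperature with compound, then 25 ng/mL CXCL12-AF647 for 30 min. After washing and paraformaldehyde fixation, bound ligand read by flow cytometry; percent inhibition calculated from MFI relative to unlabeled and ligand-only controls.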

A further series is described as follows: in vitro. As to conditions: human, Caco-2, pH 7.4. The method in brief:
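Bidirectional permeability across Caco-2 monolayers in HBSS (pH 7.4) at a test concentration of 10 μM, incubated 0 and 90 min at 37° C (n=2). Monolayer integrity was assessed by TEER and Lucifer yellow. Papp was derived from LC-MS/MS-measured concentrations.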

T2 sequence (P61073 whole entry): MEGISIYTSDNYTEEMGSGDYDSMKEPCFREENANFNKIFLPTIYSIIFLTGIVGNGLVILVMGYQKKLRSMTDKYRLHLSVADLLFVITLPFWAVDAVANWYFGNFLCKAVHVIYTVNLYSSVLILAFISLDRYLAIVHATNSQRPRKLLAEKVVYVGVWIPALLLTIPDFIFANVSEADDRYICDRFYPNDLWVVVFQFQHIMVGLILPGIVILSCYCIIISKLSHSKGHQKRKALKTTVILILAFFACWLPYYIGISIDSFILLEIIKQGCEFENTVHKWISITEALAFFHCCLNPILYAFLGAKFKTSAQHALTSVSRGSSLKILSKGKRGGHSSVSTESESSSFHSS
T1 sequence (P61073 whole entry): as above

One may read the IC50 as the midpoint of a concentration-inhibition curve. The Papp A→B is the apparent permeability from the apical to the basolateral side of a cell layer. One may read the Papp B→A as how fast a substance crosses the layer from the basolateral side. One may read the efflux ratio as the permeability from basolateral to apical divided by that in the opposite direction, in the common usage. Turning to `Cc1cccnc1[C@@H]1CCC[C@H](c2nc3ccccc3n2CCCNC2CCOCC2)N1C` [I-19, N-(3-(2-((2R,6S)-1-methyl-6-(3-methylpyridin-2-yl)piperidin-2-yl)-1H-benzo[d]imidazol-1-yl)propyl)tetrahydro-2H-pyran-4-amine], in series [1], the concentration for half-maximal inhibition (IC50) was 0.01 to 100 nM. The IC50 in series [2] was in the range of 0.01 to 100 nM. For the same molecule, in “in vitro”, the apical-to-basolateral permeability (Papp A→B) at 90 min, 10 μM lay within 0.1 to 10 ×10⁻⁶ cm/s; the apparent permeability from basolateral to apical (Papp B→A) at 90 min, 10 μM lay within 10 to 30 ×10⁻⁶ cm/s; the efflux ratio at 90 min, 10 μM lay in the range of 0.1 to 10.

Turning to `Cc1cc(F)cnc1[C@@H]1CCC[C@H](c2nc3cccc(N4CCN(C)CC4)c3[nH]2)N1` [I-142], in series [1], the concentration for half-maximal inhibition (IC50) lay in the range of 0.01 to 100 nM. The IC50 in series [2] lay within 0.01 to 100 nM. In the series “in vitro”, the apical-to-basolateral permeability (Papp A→B) at 90 min, 10 μM lay within 0.1 to 10 ×10⁻⁶ cm/s; the Papp B→A at 90 min, 10 μM was in the range of 10 to 30 ×10⁻⁶ cm/s; the efflux ratio at 90 min, 10 μM lay within 0.1 to 10.

As for `Cc1ccnc([C@@H]2CCC[C@H](c3nc4cccc(N5CCN(C)CC5)c4[nH]3)N2C)c1C` [I-115], in series [1], the 50% inhibitory concentration (IC50) is 100 to 1000 nM. Also, the 50% inhibitory concentration (IC50) in series [2] lay within 0.01 to 100 nM. In the series “in vitro”, the apparent permeability from apical to basolateral (Papp A→B) at 90 min, 10 μM fell in the range of 0.1 to 10 ×10⁻⁶ cm/s; the Papp B→A at 90 min, 10 μM was in the range of 0.1 to 10 ×10⁻⁶ cm/s; the efflux ratio at 90 min, 10 μM lay within 0.1 to 10.

Take `Cc1cc(F)cnc1[C@@H]1CCC[C@H](c2nccn2C2CCN(C)CC2)N1` [I-173]: the IC50 in series [1] was not below 1000 nM. Also, the half-inhibitory concentration (IC50) in series [2] was not below 1000 nM. In the series “in vitro”, the apical-to-basolateral permeability (Papp A→B) at 90 min, 10 μM fell in the range of 10 to 30 ×10⁻⁶ cm/s; the basolateral-to-apical permeability (Papp B→A) at 90 min, 10 μM is 10 to 30 ×10⁻⁶ cm/s; the efflux ratio at 90 min, 10 μM was 0.1 to 10.

As for `Cc1cccnc1[C@@H]1CCC[C@H](c2nc3ccccc3n2CCC#N)N1` [I-159], the IC50 in series [1] is not below 1000 nM. In addition, the half-maximal inhibitory concentration (IC50) in series [2] was not below 1000 nM. In “in vitro”, the Papp A→B at 90 min, 10 μM is 10 to 30 ×10⁻⁶ cm/s; the apparent permeability from basolateral to apical (Papp B→A) at 90 min, 10 μM lay within 10 to 30 ×10⁻⁶ cm/s; the efflux ratio at 90 min, 10 μM fell in the range of 0.1 to 10.

Regarding `Cc1cccnc1[C@@H]1CCC[C@H](c2nccn2CCn2cccn2)N1` [I-176], the concentration for half-maximal inhibition (IC50) in series [1] is not below 1000 nM. In addition, the half-maximal inhibitory concentration (IC50) in series [2] was not below 1000 nM. Also, in the series “in vitro”, the apical-to-basolateral permeability (Papp A→B) at 90 min, 10 μM is 10 to 30 ×10⁻⁶ cm/s; the apparent permeability from basolateral to apical (Papp B→A) at 90 min, 10 μM is more than 30 ×10⁻⁶ cm/s; the efflux ratio at 90 min, 10 μM is 0.1 to 10.

Take `Cc1ccnc([C@@H]2CCC[C@H](c3nc4cccc(N5CCN(C)CC5)c4[nH]3)N2C)c1` [I-71]: the IC50 in series [1] was not below 1000 nM. Further, the concentration for half-maximal inhibition (IC50) in series [2] lay within 100 to 1000 nM. In “in vitro”, the Papp A→B at 90 min, 10 μM was 10 to 30 ×10⁻⁶ cm/s; the Papp B→A at 90 min, 10 μM lay in the range of 10 to 30 ×10⁻⁶ cm/s; the efflux ratio at 90 min, 10 μM lay in the range of 0.1 to 10.

For the molecule `CN(C)C1CCN(c2cccc3nc([C@H]4CCC[C@@H](c5ncccc5Cl)N4)[nH]c23)CC1` [I-153], the IC50 in series [1] lay within 0.01 to 100 nM. In addition, the concentration for half-maximal inhibition (IC50) in series [2] lay in the range of 0.01 to 100 nM. Moreover, in “in vitro”, the Papp A→B at 90 min, 10 μM was in the range of 0.1 to 10 ×10⁻⁶ cm/s; the apparent permeability from basolateral to apical (Papp B→A) at 90 min, 10 μM lay within 10 to 30 ×10⁻⁶ cm/s; the efflux ratio at 90 min, 10 μM fell in the range of 0.1 to 10.

As to `CN1CCN(c2cccc3nc([C@H]4CCC[C@@H](c5ncccc5C5CC5)N4C)[nH]c23)CC1` (stereo in doubt) [I-61], the IC50 in series [1] fell in the range of 0.01 to 100 nM. Also, in series [2], the IC50 was 0.01 to 100 nM. In addition, in the series “in vitro”, the Papp A→B at 90 min, 10 μM was in the range of 10 to 30 ×10⁻⁶ cm/s; the Papp B→A at 90 min, 10 μM fell in the range of 10 to 30 ×10⁻⁶ cm/s; the efflux ratio at 90 min, 10 μM lay in the range of 0.1 to 10.

Regarding `Cc1cccnc1[C@@H]1CCC[C@H](c2nc3cccc(N4CCN(C(C)C)CC4)c3[nH]2)N1C` [I-75], the IC50 in series [1] lay in the range of 0.01 to 100 nM. The half-maximal inhibitory concentration (IC50) in series [2] fell in the range of 0.01 to 100 nM. For the same molecule, in the series “in vitro”, the Papp A→B at 90 min, 10 μM was in the range of 10 to 30 ×10⁻⁶ cm/s; the Papp B→A at 90 min, 10 μM lay in the range of 0.1 to 10 ×10⁻⁶ cm/s; the efflux ratio at 90 min, 10 μM fell in the range of 0.1 to 10.

Consider `CNCCCn1c([C@H]2CCC[C@@H](c3ncccc3C)N2C)nc2ccccc21` [I-16, N-methyl-3-(2-((2R,6S)-1-methyl-6-(3-methylpyridin-2-yl)piperidin-2-yl)-1H-benzo[d]imidazol-1-yl)propan-1-amine], for which, in series [1], the IC50 lay within 0.01 to 100 nM. The half-maximal inhibitory concentration (IC50) in series [2] lay within 0.01 to 100 nM. Further, in “in vitro”, the Papp A→B at 90 min, 10 μM lay in the range of 0.1 to 10 ×10⁻⁶ cm/s; the basolateral-to-apical permeability (Papp B→A) at 90 min, 10 μM was in the range of 10 to 30 ×10⁻⁶ cm/s; the efflux ratio at 90 min, 10 μM was more than 30.
